Measurements reported in US10358456B2, “Platinum(II) complexes with selone ligands and method of use” (KING FAHD UNIVERSITY OF PETROLEUM AND MINERALS, priority 2017, dated 2019).

Experiments:
[1] = system: HeLa (cervical cancer cells); experiment: MTT assay for anticancer activity (in vitro cytotoxicity), HeLa; type: cell-based, human; conditions: for IC50: MTT, incubated 24 h with compound, read-out: IC50 ± SEM, HeLa (concentration causing 50% reduction in cell viability)
Experimental: (§1) Cell Cultures: Human Cervical cancer HeLa and Brest cancer cell lines MCF-7 were grown in Dulbecco's modified Eagle's medium (DMEM) supplemented with 10% Fetal Bovine Serum (FBS), and 1% penicillin (10,000 units), streptomycin (10 mg), in 74 cm2 flask and incubated until 80% confluences obtained in humidified environment of, 5% CO2, 95% air, 37° C.
(§2) Complexes 1-7 and cisplatin (positive control) at 0.195 μM, 0.39 μM, 0.781 μM, 1.56 μM, 3.125 μM, 6.25 μM, 12.5 μM, 25 μM, and 50 μM concentrations were prepared in DMEM. Cancer cells were seeded and maintained in quadruplicate in a 96-well tissue culture plate at 5×10^4 cells per well in 200 μl of same medium. The cancer cells were incubated 24 hours before the treatment. All compounds were dissolved in 50% DMSO. Therefore, DMSO was used as a negative control. The final DMSO concentration, in each well, was less than 0.1%. The cancer cells were treated with the synthesized compounds 1-8 along with the cisplatin and the resultant cultures were incubated for 24 h. The medium of wells was discarded and 100 μL DMEM containing MTT (3-(4,5-dimethylthiazol-2-yl)-2,5-diphenyltetrazolium bromide) (5 mg/mL) was added to the wells and incubated in a CO2 incubator at 37° C. in the dark for 4 hrs. After incubation, a purple colored formazan (artificial chromogenic dye, a product of the reduction of water insoluble tetrazolium salts e.g., MTT by dehydrogenases and reductases) in the cells is produced and appeared as dark crystals in the bottom of the wells. The medium of culture was discarded from each well carefully to avoid disruption of the monolayer. 100 μL of isopropanol was added in each well. The solution was thoroughly mixed in the wells to dissolve the formazan crystals which ultimately results into a purple solution. The absorbance of the 96-well plate was measured at 570 nm with Mithras2LB943 against reagent blank. All data presented are mean±standard deviation.
(§3) To examine the possible anticancer effect of cisplatin and the prepared complexes, two human tumor cell lines, HeLa (cervical cancer cells) and MCF7 (breast cancer cells) were used. The results of in vitro cytotoxic activity are expressed as IC50 (concentration causing 50% reduction in cell viability) and are presented in Table 5.

[2] = system: MCF7 (breast cancer cells); experiment: MTT assay for anticancer activity (in vitro cytotoxicity), MCF7; type: cell-based, human; conditions: for IC50: MTT, incubated 24 h with compound, read-out: IC50 ± SEM, MCF7 (concentration causing 50% reduction in cell viability)
Experimental: as §1, §2, §3

Work on NC(N)=[Se][Pt]([Cl])([Cl])[Se]=C(N)N [(1), Pt(SeU)2Cl2] yielded an IC50 [1] of 19.78 ± 0.13 µM and an IC50 [2] of 11.11 ± 0.05 µM.

For [Cl][Pt]([Cl])(=[Se]=C1NCCN1)=[Se]=C1NCCN1 [(2), Pt(ImSe)2Cl2], the “activity against MCF7 cells, compared among the complexes and with cisplatin” value ([2]; in words) was “most active”.

CCN1CCNC1=[Se][Pt]([Cl])([Cl])[Se]=C1NCCN1CC [(3), Pt(EtImSe)2Cl2] gave an IC50 [1] of 17.73 ± 0.14 µM and an IC50 [2] of 8.59 ± 0.07 µM.

For CCCN1CCNC1=[Se][Pt]([Cl])([Cl])[Se]=C1NCCN1CCC [(4), Pt(PrImSe)2Cl2], the IC50 [1] was 12.9 ± 0.16 µM and the IC50 [2] was 18.64 ± 0.03 µM.

Work on CC(C)N1CCNC1=[Se][Pt]([Cl])([Cl])[Se]=C1NCCN1C(C)C [(5), Pt(i-PrImSe)2Cl2] yielded an IC50 [1] of 14 ± 0.16 µM and an IC50 [2] of 8.3 ± 0.06 µM.

For [Cl][Pt]([Cl])([Se]=C1NCCCN1)[Se]=C1NCCCN1 [(6), Pt(DiazSe)2Cl2], the IC50 [1] was 11.3 ± 0.2 µM, the “antiproliferative potency in HeLa cells, compared among the complexes and with cisplatin” value ([1]; in words) was “strongest antiproliferative potency” and the IC50 [2] was 12.27 ± 0.01 µM.

[Cl][Pt]([Cl])([Se]=C1NCCCCN1)[Se]=C1NCCCCN1 [(7), Pt(DiapSe)2Cl2] showed an IC50 [1] of 11.5 ± 0.22 µM and an IC50 [2] of 16.68 ± 0.02 µM.

N.N.[Cl][Pt][Cl] [Cisplatin, cisplatin, reference compound] gave an IC50 [1] of 21.4 ± 0.73 µM and an IC50 [2] of 8.98 ± 0.07 µM.
